Columns and labels:
[1] = tested on: A375 cells; experiment: Assay 2: A375 (BRAF) GI50 cell-based assay (Cell Titer-Glo); conditions: Homo sapiens, A-375, 72 hours
Procedure: (§1) Alternatively, the following procedure can be used to measure cell-based activity. Test compounds were dissolved in DMSO in 10 mM stock. Cell Titer-Glo® 2.0 Luminescent cell viability assay reagent was purchased from Promega (Madison, WI). A375 and HCT116 cell lines were purchased from American Type Culture Collection (Manassas, VA). For A375 cells, cell culture media was DMEM+10% FBS. For HCT116 cells, cell culture media was McCoy's 5A+10% FBS. All media were supplemented with 100 μg/mL of penicillin, and 100 μg/mL of streptomycin. Cultures were maintained at 37° C. in a humidified atmosphere of 5% CO2 and 95% air.
(§2) Test compounds were diluted in DMSO solution with 10-dose and 3-fold dilutions in a source plate starting at 10 mM. 25 nL of each test compound was delivered from the source plate to each well of the 384-well cell culture plates (T=Final) by Echo 550. 25 μL of culture medium containing 2000 of A375 or HCT116 cells was added to each of the wells in duplicates of the cell culture plates (T=0 and T=Final). 25 μL of Cell Titer Glo 2.0 reagent was added to each well of cell culture plate (T=0). The contents were mixed on an orbital shaker for 2 min and incubated at room temperature for 15 min to stabilize luminescent signal. Luminescence was recorded by Envision 2104 Multilabel Reader (PerkinElmer, Santa Clara, CA). The number of viable cells in culture was determined based on quantitation of the ATP present in each culture well. The cells in cell culture plate (T=Final) were incubated with the compounds at 37° C., 5% CO2 for 72 hours. 25 μL of Cell Titer Glo 2.0 reagent was added to each well. The contents were mixed on an orbital shaker for 2 min and incubated at room temperature for 15 min to stabilize luminescent signal. Luminescence was recorded by Envision 2104 Multilabel Reader (PerkinElmer, Santa Clara, CA). The number of viable cells in culture was determined based on quantitation of the ATP present in each culture well. The GI50 curves were plotted using the GraphPad Prism 4 program based on a sigmoidal dose-response equation Y=Bottom+(Top-Bottom)/(1+10^((Log EC50−X)*HillSlope)). All parameters in the equation were calculated by GraphPad Prism 4 program. […] Accordingly, GI50 is the value of 10^X, where X was calculated by the Curve Fitting Equation when Y=50 using Excel.
Assay 2 is the A375 (BRAF) GI50 (nM) cell-based assay as described in Example 39. A2 indicates an IC50 of less than or equal to 1 μM, and B2 indicates an IC50 of greater than 1 μM and less than or equal to 2 μM.

[2] = target: MEK1 (Homo sapiens (Human), UniProt Q02750); experiment: MEK Inhibition Assay-2 (Z'-LYTE biochemical assay); conditions: Z'-LYTE assay of Example 37; read-out: IC50 against MEK1
Procedure: MEK1 inhibitory activity of compounds were tested using the following procedure (protocol available at thermofisher.com/content/dam/LifeTech/migration/files/drug-discovery/pdfs.par.60256.file.dat/20130430%20ssbk %20customer %20protocol %20 and %20assa y %20conditions.pdf). The Z′-LYTE biochemical assay (ThermoFisher) employs a fluorescence-based, coupled-enzyme format and is based on the differential sensitivity of phosphorylated and non-phosphorylated peptides to proteolytic cleavage.
Test compounds in 100% DMSO were screened in 1% DMSO (final) in the well. For 10 point titrations, 3-fold serial dilutions are conducted from the starting concentration of 30 μM.
After the 1 hour incubation, 5 μL of a 1:1024 dilution of Development Reagent A (available from Invitrogen, catalog no. PV3295) was added.
ATP solutions were diluted to a 4× working concentration in Kinase Buffer (50 mM HEPES pH 7.5, 0.01% BRIJ-35, 10 mM MgCl2, 1 mM EGTA). ATP Km apparent was previously determined using a Z′-LYTE assay. The Development Reagent was diluted in Development Buffer (available from Invitrogen, catalog no. P3127).
Assay Protocol: 2.5 μL of 4× test compound or 100 nL of 100× Test Compound plus 2.4 μL Kinase Buffer, 5 μL of the 2× Peptide/Kinase Mixture, 2.5 μL of 4×ATP Solution were added to the plates and placed on a shake plate for 30-seconds. The kinase reaction was allowed to proceed for 60-minute at room temperature, before 5 μL of Development Reagent Solution was added, and the mixture agitated for 30-seconds on a shake plate. The mixture was incubated for 60-minute at room temperature. Fluorescence was measured using a plate reader and the data were analyzed.
This control yielded 100% cleaved peptide in the Development Reaction. The 100% Phosphorylation Control, which consisted of a synthetically phosphorylated peptide of the same sequence as the peptide substrate, was designed to allow for the calculation of percent phosphorylation. This control yielded a very low percentage of cleaved peptide in the Development Reaction. The 0% Phosphorylation and 100% Phosphorylation Controls allow for the calculation of the percent phosphorylation achieved in a specific reaction well.
The minimum emission ratio in a screen was established by the 0% Inhibition Control, which contained active kinase. This control was designed to produce a 10-50% phosphorylated peptide in the Kinase Reaction. Cascade assays may produce up to 70% phosphorylated peptide.
A known inhibitor control standard curve, 10 point titration, was run for each individual kinase on the same plate as the kinase to ensure the kinase was inhibited within an expected IC50 range previously determined.
The following controls are prepared for each concentration of Test Compound assayed. […] The expected value for a non-interfering compound should be 100%. Any value outside of 90% to 110% was flagged. […] The expected value for a non-fluorescence compound should be 0%. Any value>20% was flagged.
The data in Table A was calculated. XLfit from IDBS was used. The dose response curve was curve fit to model number 205 (sigmoidal dose-response model).
Table 3 lists the MEK1 inhibition assay results of selected compounds according to the above procedure.

[3] = tested on: HCT116 cells; experiment: Assay 3: HCT116 (Kras) GI50 assay (Cell Titer-Glo); format: cell-based; conditions: Homo sapiens, HCT-116, 72 hours
Procedure: as §1, §2
Assay 3 is the HCT116 (Kras) GI50 (nM) assay as described in Example 39. A3 indicates an IC50 of less than or equal to 5 μM, and B3 indicates an IC50 of greater than 5 μM and less than or equal to 10 μM.

Sequence of MEK1 (Q02750 whole entry): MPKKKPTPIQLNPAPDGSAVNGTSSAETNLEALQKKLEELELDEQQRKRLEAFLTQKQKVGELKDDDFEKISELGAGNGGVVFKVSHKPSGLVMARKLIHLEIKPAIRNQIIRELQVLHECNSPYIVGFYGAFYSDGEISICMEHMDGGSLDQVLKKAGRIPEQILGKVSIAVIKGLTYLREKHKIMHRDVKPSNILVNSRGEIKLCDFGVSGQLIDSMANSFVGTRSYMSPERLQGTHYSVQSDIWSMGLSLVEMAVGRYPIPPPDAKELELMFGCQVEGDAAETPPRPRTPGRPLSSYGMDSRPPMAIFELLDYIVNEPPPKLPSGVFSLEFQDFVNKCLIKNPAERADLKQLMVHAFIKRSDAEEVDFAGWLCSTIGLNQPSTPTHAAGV

GI50 [1]: ≤ 1000 nM
IC50 [2]: ≤ 150 nM
GI50 [3]: ≤ 5000 nM
Structure (SMILES): O=C1CCCc2c1sc(Nc1ccc(I)cc1F)c2C(=O)NOCCO [Compound 1.029, 2-((2-Fluoro-4-iodophenyl)amino)-N-(2-hydroxyethoxy)-7-oxo-4,5,6,7-tetrahydrobenzo[b]thiophene-3-carboxamide]
